According to ChEMBL document CHEMBL3507680, “University of Dundee, Gates Library screen for HepG2 cell viability”:

Assay: Human HepG2 cell viability assay in 384 well format
Type: toxicity, cell-based
Set-up: dose 125 nL, time 70.5 hour; concentration not given beside the values
Conditions: HepG2 cells, read-out: Inhibition

Compound	cytotoxicity at 70.5 h [%]
Cc1cc(-n2nnc(C(=O)O)c2-c2ccncc2)ccc1F	-20
CCc1ccc(-n2nnc(C(=O)O)c2-c2ccncc2)cc1	-4.02
CCc1ccc(C(O)CN2CCN(c3cccc(OC)c3)CC2)cc1 (centres undefined)	-29.4
O=C(O)c1nnn(-c2cc(F)cc(F)c2)c1-c1ccncc1	8.43
O=C(O)c1nnn(-c2ccc(C(F)(F)F)cc2)c1-c1ccncc1	-26.2
CC(C)OCCCNC(=O)CC1(Cn2cnnn2)CCCCC1	-8.88
O=C(Cn1ccc2ccc(F)cc21)NCc1ccc(C(=O)O)cc1	18
O=C(COc1coc(CN2CCCCC2)cc1=O)c1ccc(Cl)cc1	-23.2
CC(C)CCNc1c(C#N)c2c(c3nncn13)CN(C)CC2	-3.96
CN1CCc2c(C#N)c(NCc3ccccc3)n3cnnc3c2C1	17.9
CN1CCc2c(C#N)c(NCCN3CCOCC3)n3cnnc3c2C1	-3.13
O=C(O)C1CCCN(C(=O)CCn2ccc3c(Br)cccc32)C1 (centres undefined)	-12.2
O=C(CCn1ccc2ccc(Cl)cc21)NCc1ccc(C(=O)O)cc1	-0.8
Cc1cccc(C(=O)Oc2cc(=O)n3cccc(C)c3n2)c1	-5.1
CCOc1ccccc1C(=O)Oc1cc(=O)n2cccc(C)c2n1	-21.9
Cc1cc(=O)n(CC(=O)NC(C)C)c(Nc2ccc(F)c(C)c2)n1	23.2
CCC(C)NC(=O)Cn1c(Nc2cc(C)cc(C)c2)nc(C)cc1=O (centres undefined)	0.214
CC/N=c1\nc(NCC)nc2n1C(O)(Nc1cc(Cl)ccc1Cl)CS2 (centres undefined)	17.8
Cc1cc(C)cc(Nc2nc(C)cc(=O)n2CC(=O)NC(C)C)c1	-5.12
COCCNC(=O)Cn1c(-c2cccc(F)c2)nc(C)c(CCO)c1=O	-7.96

Compound	cytotoxicity at 70.5 h [%]
O=c1[nH]nc2c(S(=O)(=O)N3CCN(c4ccc(F)cc4)CC3)cccn12	20.6
N#Cc1cnc2ccccc2c1N1CCC(C(=O)O)CC1	-4.5
O=C(O)c1nc(SCc2ccc(F)cc2)ncc1Br	-7.86
c1ccc(-c2nnc3sc(CCN4CCCC4)nn23)cc1	-5.25
CCOC(=O)C1CCN(C(=O)c2cc(F)ccc2-n2cnnn2)CC1	3.28
NC(=O)C1CCN(C(=O)c2cc(Br)ccc2-n2cnnn2)CC1	27.7
CSc1nc2ncc3c(=O)n(CCN4CCCCC4)ccc3n2n1	-4.31
COC(=O)C(NC(=O)Nc1ccc(C(C)=O)cc1)C(C)C (centres undefined)	-5.76
COC(=O)Cn1nc(-c2ccccc2F)ccc1=O	19.4
CC(=O)Cn1nc(-c2ccccc2F)ccc1=O	-3.88
CCN(CC)Cc1nnc2sc(-c3cc(C(C)C)[nH]n3)nn12	-8.88
NC(=O)c1c(NC(=O)CCC(=O)O)sc2c1CCc1ccccc1-2	-9.16
NC(=O)c1c(NC(=O)CCCC(=O)O)sc2c1CCc1ccccc1-2	10.4
Cc1cccc(CSc2ncc(Cl)c(C(=O)O)n2)c1	-11
O=C(O)c1nc(SCc2ccccc2)ncc1Br	-8.29
CCOc1cc(CNCCCn2ccnc2)cc(Cl)c1OCC	19.9
COc1ccc(Cl)cc1CNCCCn1ccnc1	-2.31
Cc1c(CNS(=O)(=O)c2cccc(COC(C)C)c2)cnn1C	-5.71
CCn1nc(C)c2nnn(CC(=O)Nc3ccccc3)c(=O)c21	-10.7
CC(C)CN1Cc2nc(N3CCC(O)CC3)ncc2C1=O	12.9

Compound	cytotoxicity at 70.5 h [%]
COc1c(Br)c(C(=O)NC2CCCCC2)nn1C	-15
Cn1ncc(C(=O)N2CCN(S(C)(=O)=O)CC2)c1Cl	20.9
CC(C)S(=O)(=O)N1CCN(C(=O)c2cnn(C)c2Cl)CC1	-12.2
Cc1nn(C)c(C)c1NC(=O)CCn1ncc2ccc(Cl)cc21	-11.9
CCn1nc(C)c2nnn(CC(=O)Nc3ccccc3F)c(=O)c21	-4.52
CCn1nc(C)c2nnn(CC(=O)Nc3cccc(F)c3)c(=O)c21	-5.5
CCC(=O)Nc1nnc(CCOc2ccccc2)s1	-2.19
CCC(=O)Nc1nnc(CCOc2ccccc2OC)s1	-11.7
COCc1nc(N(C)C)ncc1C(=O)Nc1ccc(Cl)cc1	-11.1
CCn1cc(NC(=O)CN2C(=O)CC(C)(C)c3ccccc32)cn1	-4.43
Cc1cc(NC(=O)CN2C(=O)CC(C)(C)c3ccccc32)no1	-3
CCOCCCNC(=O)c1nnn(Cc2ccccc2)c1OC	-4.93
O=C(Nc1cc(-c2cccnc2)no1)C1CCCCC1	-4.13
CNC(=O)c1cc(-c2ccccc2)nc2ncnn12	7.79
COCCNC(=O)c1cc(C(C)C)nc(N2CCCCC2)n1	-9.32
CCN1CCN(C(=O)C2CC(=O)N(c3cnn(C(C)C)c3)C2)CC1 (centres undefined)	-1.53
CC(C)n1cc(N2CC(C(=O)N3CCc4ccccc4C3)CC2=O)cn1 (centres undefined)	26.3
NCc1n[nH]c(-c2cccc(F)c2)n1	32.2
COc1cc(-c2n[nH]c(CCN)n2)cc(OC)c1OC	22.8
